From patent publication US8759338B2, “Heterocyclic kinase inhibitors” (Novartis AG, priority 2008, dated 2014)

Experiments:
[1] = target: PIM3 (Homo sapiens (Human), UniProt Q86V86); test: Pim3 ATP depletion assay; type: biochemical; conditions: 40 μM ATP, 100 μM BAD peptide
Method: The activity of PIM3 is measured using a luciferase-luciferin based ATP detection reagent to quantify ATP depletion resulting from kinase-catalyzed phosphoryl transfer to a peptide substrate. Compounds to be tested are dissolved in 100% DMSO and directly distributed into white 384-well plates at 0.5 μA per well. To start the reaction, 10 μl of 10 nM Pim3 kinase and 200 μM BAD peptide (RSRHSSYPAGT-OH) in assay buffer (50 mM HEPES pH 7.5, 5 mM MgCl2, 1 mM DTT, 0.05% BSA) is added into each well. After 15 minutes, 10 μl of 80 μM ATP in assay buffer is added. Final assay concentrations are 5 nM PIM1, 40 μM ATP, 100 μM BAD peptide and 2.5% DMSO. The reaction is performed until approximately 50% of the ATP is depleted, then stopped by the addition of 20 μl KinaseGlo Plus (Promega Corporation) solution. The stopped reaction is incubated for 10 minutes and the remaining ATP detected via luminescence on the Victor2 (Perkin Elmer).

[2] = target: PIM1 (Homo sapiens (Human), UniProt P11309); test: Pim1 ATP depletion assay; type: biochemical; conditions: 20 μM ATP, 40 μM BAD peptide
Sequence of PIM1 (P11309 whole entry, species assumed): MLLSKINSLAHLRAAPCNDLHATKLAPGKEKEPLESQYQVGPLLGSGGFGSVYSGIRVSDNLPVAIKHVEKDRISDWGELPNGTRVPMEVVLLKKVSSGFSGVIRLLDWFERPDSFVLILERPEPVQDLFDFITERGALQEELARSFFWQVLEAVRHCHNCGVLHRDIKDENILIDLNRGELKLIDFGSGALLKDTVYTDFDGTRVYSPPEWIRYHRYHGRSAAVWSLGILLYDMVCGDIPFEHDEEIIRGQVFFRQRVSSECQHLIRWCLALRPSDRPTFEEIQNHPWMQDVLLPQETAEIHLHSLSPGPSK
Method: The activity of PIM1 is measured using a luciferase-luciferin based ATP detection reagent to quantify ATP depletion resulting from kinase-catalyzed phosphoryl transfer to a peptide substrate. Compounds to be tested are dissolved in 100% DMSO and directly distributed into white 384-well plates at 0.5 μA per well. To start the reaction, 10 μl of 5 nM Pim1 kinase and 80 μM BAD peptide (RSRHSSYPAGT-OH) in assay buffer (50 mM HEPES pH 7.5, 5 mM MgCl2, 1 mM DTT, 0.05% BSA) is added into each well. After 15 minutes, 10 μl of 40 μM ATP in assay buffer is added. Final assay concentrations are 2.5 nM PIM1, 20 μM ATP, 40 μM BAD peptide and 2.5% DMSO. The reaction is performed until approximately 50% of the ATP is depleted, then stopped with the addition of 20 μl KinaseGlo Plus (Promega Corporation) solution. The stopped reaction is incubated for 10 minutes and the remaining ATP detected via luminescence on the Victor2 (Perkin Elmer). […] IC50, the half maximal inhibitory concentration, represents the concentration of a test compound that is required for 50% inhibition of its target in vitro.

[3] = target: PIM2 (Homo sapiens (Human), UniProt Q9P1W9); test: Pim2 ATP depletion assay; type: biochemical; conditions: 4 μM ATP, 10 μM BAD peptide
Sequence of PIM2 (Q9P1W9 whole entry, species assumed): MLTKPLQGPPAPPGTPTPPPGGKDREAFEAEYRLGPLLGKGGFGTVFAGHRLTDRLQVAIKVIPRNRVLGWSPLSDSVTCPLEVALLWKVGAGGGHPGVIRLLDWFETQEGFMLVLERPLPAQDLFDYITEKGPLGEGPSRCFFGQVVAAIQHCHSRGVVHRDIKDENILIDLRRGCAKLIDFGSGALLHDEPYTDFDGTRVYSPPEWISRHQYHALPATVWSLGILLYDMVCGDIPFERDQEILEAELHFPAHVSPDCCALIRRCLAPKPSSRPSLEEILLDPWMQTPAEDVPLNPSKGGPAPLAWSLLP
Method: The activity of PIM2 is measured using a luciferase-luciferin based ATP detection reagent to quantify ATP depletion resulting from kinase-catalyzed phosphoryl transfer to a peptide substrate. Compounds to be tested are dissolved in 100% DMSO and directly distributed into white 384-well plates at 0.5 μl per well. To start the reaction, 10 μl of 10 nM Pim2 kinase and 20 μM BAD peptide (RSRHSSYPAGT-OH) in assay buffer (50 mM HEPES pH 7.5, 5 mM MgCl2, 1 mM DTT, 0.05% BSA) is added into each well. After 15 minutes, 10 μl of 8 μM ATP in assay buffer is added. Final assay concentrations are 5 nM PIM2, 4 μM ATP, 10 μM BAD peptide and 2.5% DMSO. The reaction is performed until approximately 50% of the ATP is depleted, then stopped with the addition of 20 μl KinaseGlo Plus (Promega Corporation) solution. The stopped reaction is incubated for 10 minutes and the remaining ATP detected via luminescence on the Victor2 (Perkin Elmer).

[4] = test system: KMS11 cells; test: Cell proliferation assay; type: cell-based; conditions: KMS-11, 72 h; KMS11 human myeloma cell line, 3 days, CellTiter-Glo
Method: KMS11 (human myeloma cell line), were cultured in IMDM supplemented with 10% FBS, sodium pyruvate and antibiotics. Cells were plated in the same medium at a density of 2000 cells per well into 96 well tissue culture plates, with outside wells vacant, on the day of assay. MM1.s (human myeloma cell line), were cultured in RPMI1640 supplemented with 10% FBS, sodium pyruvate and antibiotics. Cells were plated in the same medium at a density of 5000 cells per well into 96 well tissue culture plates, with outside wells vacant, on the day of assay.
Test compounds supplied in DMSO were diluted into DMSO at 500 times the desired final concentrations before dilution into culture media to 2 times final concentrations. Equal volumes of 2× compounds were added to the cells in 96 well plates and incubated at 37° C. for 3 days.
After 3 days plates were equilibrated to room temperature and equal volume of CellTiter-Glow Reagent (Promega) was added to the culture wells. The plates were agitated briefly and luminescent signal was measured with luminometer. The percent inhibition of the signal seen in cells treated with DMSO alone vs. cells treated with control compound was calculated and used to determine EC50 values (i.e., the concentration of a test compound that is required to obtain 50% of the maximum effect in the cells) for tested compounds, as shown in Example 24.

Row | SMILES | IC50 [1] [µM] | IC50 [2] [µM] | IC50 [3] [µM] | EC50 [4] [µM]
1 | NC1C=C(c2ccncc2Nc2cccc3cnc(-c4c(F)cccc4F)nc23)CCC1 (centres unmarked) [Example 1, N-(4-(3-aminocyclohex-1-enyl)pyridin-3-yl)-2-(2,6-difluorophenyl)quinazolin-8-amine] | 0.078 | 0.152 | 0.392 | 
2 | N[C@@H]1CN(c2ccncc2Nc2cccc3cnc(-c4c(F)cccc4F)nc23)CC[C@@H]1O [Example 2, (3R,4S)-3-amino-1-(3-(2-(2,6-difluorophenyl)-quinazolin-8-ylamino)-pyridin-4-yl)piperidin-4-ol] | 0.018 | 0.039 | 0.09 | 
3 | N[C@@H]1CN(c2ccncc2Nc2cccc3cnc(-c4c(F)cccc4F)nc23)CC[C@H]1O [Example 3, (3R,4R)-3-amino-1-(3-(2-(2,6-difluorophenyl)-quinazolin-8-ylamino)-pyridin-4-yl)piperidin-4-ol] | 0.067 | 0.184 | 0.23 | 
4 | N[C@@H]1CN(c2ccncc2Nc2cccc3cnc(-c4c(F)cccc4F)nc23)CC[C@H]1F [Example 9, N-(4-((3R,4R)-3-amino-4-fluoropiperidin-1-yl)pyridin-3-yl)-2-(2,6-difluorophenyl)quinazolin-8-amine] | 0.17 | 0.465 | 0.498 | 
5 | N[C@H]1CCCN(c2ncncc2Nc2cccc3cnc(-c4c(F)cccc4F)nc23)C1 [Example 12, (S)-N-(4-(3-aminopiperidin-1-yl)pyrimidin-5-yl)-2-(2,6-difluorophenyl)quinazolin-8-amine] | 3.9 | 5.4 | > 25 | 
6 | N[C@H]1CCCN(c2ccncc2Nc2cccc3cnc(-c4nccs4)nc23)C1 [Example 16, (S)-N-(4-(3-aminopiperidin-1-yl)pyridin-3-yl)-2-(thiazol-2-yl)quinazolin-8-amine] | 0.149 | 0.411 | 1.9 | 
7 | N[C@H]1CCCN(c2ccncc2Nc2cccc3cnc(-c4ccccc4F)nc23)C1 [Example 18, (S)-N-(4-(3-aminopiperidin-1-yl)pyridin-3-yl)-2-(2-fluorophenyl)quinazolin-8-amine] | 0.018 | 0.029 | 0.131 | 
8 | N[C@H]1CCCN(c2ccncc2Nc2cccc3cnc(-c4cccc(-c5nccs5)c4)nc23)C1 [Example 19, (S)-N-(4-(3-aminopiperidin-1-yl)pyridin-3-yl)-2-(3-(thiazol-2-yl)phenyl)quinazolin-8-amine] | 0.095 | 0.056 | 2 | 

More lines, main results first:

Row | IC50 [1] [µM] | IC50 [2] [µM] | IC50 [3] [µM] | SMILES | EC50 [4] [µM]
9 | 2.1 | 1.7 | 0.46 | CCO[C@@H]1C[C@H](N)CN(c2ccncc2Nc2cccc3cnc(-c4c(F)cccc4F)nc23)C1 [Example 6, N-(4-((3S,5R)-3-amino-5-ethoxypiperidin-1-yl)pyridin-3-yl)-2-(2,6-difluorophenyl)quinazolin-8-amine] | 
10 | 0.212 | 2.1 | 3.6 | N[C@@H]1CCCN(c2ccncc2Nc2cccc3cnc(-c4c(F)cccc4F)nc23)C1 [Example 7, (R)-N-(4-(3-aminopiperidin-1-yl)pyridin-3-yl)-2-(2,6-difluorophenyl)quinazolin-8-amine] | 
11 | 0.246 | 2.3 | 2.5 | NC1CC(N)CN(c2ccncc2Nc2cccc3cnc(-c4c(F)cccc4F)nc23)C1 (centres unmarked) [Example 8, 1-(3-(2-(2,6-difluorophenyl)quinazolin-8-ylamino)pyridin-4-yl)piperidine-3,5-diamine] | 
12 | 0.502 | 4.7 | > 25 | N[C@H]1CN(c2ccncc2Nc2cccc3cnc(-c4c(F)cccc4F)nc23)CC[C@@H]1F [Example 10, N-(4-((3S,4S)-3-amino-4-fluoropiperidin-1-yl)pyridin-3-yl)-2-(2,6-difluorophenyl)quinazolin-8-amine] | 
13 | 0.468 | 2.9 | > 25 | NC1CCCCN(c2ccncc2Nc2cccc3cnc(-c4c(F)cccc4F)nc23)C1 (centres unmarked) [Example 11, N-(4-(3-aminoazepan-1-yl)pyridin-3-yl)-2-(2,6-difluorophenyl)quinazolin-8-amine] | 
14 | 0.049 | 0.053 | 0.02 | N[C@H]1C[C@@H](CF)CN(c2ccncc2Nc2cccc3cnc(-c4c(F)cccc4F)nc23)C1 [Example 13, N-(4-((3S,5R)-3-amino-5-(fluoromethyl)piperidin-1-yl)pyridin-3-yl)-2-(2,6-difluorophenyl)quinazolin-8-amine] | 7.3
15 | 0.18 | 0.882 | 0.852 | C[C@H]1C[C@@H](N)CN(c2ccncc2Nc2cccc3cnc(-c4c(F)cccc4F)nc23)C1 [Example 14, N-(4-((3R,5S)-3-amino-5-methylpiperidin-1-yl)pyridin-3-yl)-2-(2,6-difluorophenyl)quinazolin-8-amine] | 
16 | 0.019 | 0.018 | 0.009 | C[C@@H]1C[C@H](N)CN(c2ccncc2Nc2cccc3cnc(-c4c(F)cccc4F)nc23)C1 [Example 15, N-(4-((3S,5R)-3-amino-5-methylpiperidin-1-yl)pyridin-3-yl)-2-(2,6-difluorophenyl)quinazolin-8-amine] | 2.6
17 | 0.016 | 0.021 | 0.031 | N[C@H]1CCCN(c2ccncc2Nc2cccc3cnc(-c4c(F)cccc4F)nc23)C1 [Example 17, (S)-N-(4-(3-aminopiperidin-1-yl)pyridin-3-yl)-2-(2,6-difluorophenyl)quinazolin-8-amine] | 
